In US6916797B2, “α-arylethylpiperazine derivatives as neurokinin antagonists” (UCB, S.A., priority 2000, dated 2005):

How the values were obtained:
[1] = system: verapamil binding site of the L-type calcium channel; assay: Inhibition of [3H]D888 binding to the verapamil binding site of the L-type calcium channel (rat cerebral cortex membranes); conditions: 10 μmol/l of test substance
Description: 200-250 g male Sprague-Dawley rats are sacrificed by decapitation. Cerebral cortices are quickly dissected on ice and homogenized in a 20 mmol/l Tris-HCl (pH 7.4) buffer containing 250 mmol/l sucrose (buffer A). The homogenate is centrifuged at 30,000 g for 15 min at 4° C. The resulting crude membrane pellet is resuspended in a 50 mmol/l Tris-HCl (pH 7.4) buffer and incubated 15 min at 37° C. before being centrifuged at 30,000×g for 15 min at 4° C. After two more washes under the same conditions, the final pellet is resuspended in buffer A at a protein concentration ranging from 15 to 25 mg/ml and stored in liquid nitrogen.
Binding experiments are essentially performed according to Reynolds J. et al., J. Pharmacol. Exp. Ther. (1986), 237, 731-738. (1986) with slight modifications.
Membranes (120-175 μg/assay) are incubated at 25° C. for 60 min in 0.5 ml of a 50 mmol/l Tris-HCl buffer (pH 7.4) containing 2 mmol/l MgCl2, 0.2 to 0.4×10-9 mol/l of [^3H]D888 (85 Ci/mmol; Amersham, Belgium) and 10 μmol/l of the test substance. The non specific binding (NSB) is defined as the residual binding observed in the presence 10 μM verapamil. Membrane-bound and -free radioligands are separated by rapid filtration through glass fiber filters (equivalent to Whatman GF/C or GF/B; VEL, Belgium) presoaked in 0.1% polyethyleneimine to reduce non specific binding. Samples and filters are rinsed by at least 6 ml of 50 mmol/l Tris-HCl (pH 7.4) buffer. […] The radioactivity trapped onto the filters is counted by liquid scintillation in a β-counter.
The inhibition of the radioligand specific binding is calculated as follows: [formula] • where BI and Bo represent the binding observed in the presence and absence of the test substance respectively; and • BNS is the non specific binding.
Data analysis is performed by a computerized non linear curve fitting method using a set of equations describing several binding models assuming competitive interactions between ligands (Weiland G. A. and P. B. Molinoff Life Science (1981), 29, 313-330; Molinoff P. et al. (1981) Life Sci., 29, 427-443).

[2] = system: isolated rat aorta contracted by 100 mM KCl; assay: Effect of compound on isolated rat aorta contracted by 100 mM KCl; conditions: 10^−5 M; contraction by 100 mM KCl
Description: Rat thoracic aorta depolarized by 100 mM KCl develops a contraction induced by an influx of Ca^2+ into the smooth muscle cell. An inhibition of this contraction could predict a Ca^2+ antagonist activity.
The method was adapted from Polster P. et al., J. Pharmacol. Exp. Ther. (1990), 255, 593: rings of thoracic aorta were prepared from male Wistar rats (250-400 g) and mounted under an optimal resting tension of 2 g in 10 ml organ baths containing modified Krebs' solution (NaCl 112 mM, NaHCO3 25 mM, KCl 5 mM, MgSO4 1.2 mM, CaCl2 2.5 mM, KH2PO4 1 mM and glucose 11.5 mM, pH 7.4). The bathing solution was maintained at a temperature of 37° C. and gassed with 95% O2 and 5% CO2. Isometric contractions were measured with a force transducer connected to an amplifier. A computer system was used to control data acquisition and fluid circulation through electrovalves. Drugs were manually injected into the bath.
Each ring was allowed to equilibrate for 60 min in the modified Krebs' solution. […] After obtaining two reproducible control contractions, a 3rd contraction was induced and the test compound was added to the bathing medium for 2 hours. Only preparation in which the contractions were matched were used. Each tissue received only one concentration of the test compound. Appropriate control experiments were conducted in order to test the effect of the solvant.
To normalize data, the change in tension due to the drug was compared to the change of tension due to the solvant and expressed as percentage of the induced relaxation of the initial contraction. Raw data were processed by a computer system and the pD′2 value was calculated following the method of Van Rossum J. M. et al., Arch. Int. Pharmacodyn. Ther. (1963), 143, 299.

NK1 receptors = NK1 receptors (Homo sapiens, UniProt P25103); assay: Binding of [4,5-3H-Leu10] substance P to human recombinant NK1 receptors expressed in CHO cell membranes; set-up: host or cells: CHO cells; conditions: pIC50 = -log IC50, concentration inhibiting by 50% the specific binding of [4,5-3H] substance P; tested as the free base/salt given in c1
Description: The following test was designed to assess the affinity of test substances for human recombinant NK1 receptors expressed in Chinese Hamster Ovarian (CHO) cells.
CHO cells expressing the human recombinant NK1 receptor are used. The cells were obtained from Euroscreen (Brussels, Belgium).
Cells expressing the human NK1 receptor are routinely cultured in 175 cm2 flasks containing 75 ml of medium F12 (Ham) enriched with 2 mmol/l L-glutamine, 100 IU/ml penicilline, 100 μg/ml streptomycine, 1% sodium pyruvate, 2.5 μg/ml fungizone amphotericin B, 400 μg/ml geneticin and supplemented with 10% foetal calf serum. […] When subcultured, the cells are seeded at a concentration of 50,000 cells/cm2.
Confluent cells are gently scraped and resuspended in 25 ml of phosphate buffered saline without calcium and magnesium. The cellular suspension is centrifuged at 1500×g for 3 min (4° C.). The cell pellet is homogenized in a 15 mmol/l Tris-HCl (pH 7.5) buffer, 2 mmol/l MgCl2, 0.3 mmol/l EDTA, 1 mmol/l EGTA. The crude membrane fraction is collected by two consecutive centrifugation steps at 40,000×g for 25 min (4° C.). The final pellet is resuspended in 20 mmol/l Tris-HCl (pH 7.4), 250 mmol/l sucrose buffer at a protein concentration ranging from 2 to 6 mg/ml and stored in liquid nitrogen. • 1.2.2. Test Design
The inhibition constant (Ki) is determined using increasing concentrations of the test substance. The concentration range usually encompasses 6 log units with variable steps (0.3 to 1 log). Assays are performed in mono- or duplicate.
Membranes are incubated at 25° C. for 60 min in 0.5 ml of a 50 mmol/l Tris-HCl buffer (pH 7.4) containing 2 mmol/l MgCl2, 100 μg/ml bacitracine, 0.1 to 0.4×10^−9 mol/l of [4,5^3H-Leu^10] substance P (specific activity>100 Ci/mmol) and increasing concentrations of the test substance. […] Membrane-bound and free radioligands are separated by rapid filtration through glass fiber filters (equivalent to Whatman GF/C or GF/B; VEL, Belgium) presoaked in 0.1% polyethyleneimine to reduce non specific binding. Samples and filters are rinsed by at least 6 ml of 50 mmol/l Tris-HCl (pH 7.4) buffer.
Initial values for the different variables may be provided by the experimenter.

Sequence of NK1 receptors (P25103 whole entry): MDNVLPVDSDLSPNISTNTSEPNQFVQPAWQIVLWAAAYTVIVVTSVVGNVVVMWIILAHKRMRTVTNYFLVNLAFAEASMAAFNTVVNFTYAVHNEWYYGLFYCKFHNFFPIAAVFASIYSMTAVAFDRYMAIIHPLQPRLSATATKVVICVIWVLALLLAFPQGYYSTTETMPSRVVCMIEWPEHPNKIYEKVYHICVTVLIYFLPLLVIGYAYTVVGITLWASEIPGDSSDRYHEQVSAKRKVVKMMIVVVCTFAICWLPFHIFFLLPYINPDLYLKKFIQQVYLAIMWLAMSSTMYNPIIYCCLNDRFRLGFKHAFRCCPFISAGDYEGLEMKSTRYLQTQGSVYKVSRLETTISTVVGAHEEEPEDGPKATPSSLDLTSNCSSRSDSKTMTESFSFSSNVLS

O=S(=O)(O)CCCN1CCN(C(COCc2cc(C(F)(F)F)cc(C(F)(F)F)c2)c2ccccc2)CC1 (racemic) [Compound 160]
% inhibition of [3H]D888 binding to the verapamil binding site of the L-type calcium channel [1]: 0 (0: inhibition < 20%) | Result: effect of compound on isolated rat aorta contracted by 100 mM KCl [2]: inactive à 10^−5 M | IC50 (NK1 receptors): 0.0316 µM

FC(F)(F)c1cc(COC[C@H](c2ccccc2)N2CCN(CCCCc3nnn[nH]3)CC2)cc(C(F)(F)F)c1 [Compound 298, (S)-1-[2-(3,5-Bis-trifluoromethyl-benzyloxy)-1-phenyl-ethyl]-4-[4-(1H-tetrazol-5-yl)-butyl]-piperazine]
% inhibition of [3H]D888 binding to the verapamil binding site of the L-type calcium channel [1]: + (+: inhibition comprised between 20 and 50%) | Result: effect of compound on isolated rat aorta contracted by 100 mM KCl [2]: inactive à 10^−5 M | IC50 (NK1 receptors): 0.0158 µM

O=C(O)CCCN1CCN(C(COCc2cc(C(F)(F)F)cc(C(F)(F)F)c2)c2ccccc2)CC1 (racemic) [Compound 232]
% inhibition of [3H]D888 binding to the verapamil binding site of the L-type calcium channel [1]: + (+: inhibition comprised between 20 and 50%) | Result: effect of compound on isolated rat aorta contracted by 100 mM KCl [2]: inactive à 10^−5 M | IC50 (NK1 receptors): 0.0501 µM

O=C(O)C1CCC(N2CCN(C(COCc3cc(C(F)(F)F)cc(C(F)(F)F)c3)c3ccccc3)CC2)CC1 (stereo not drawn) [Compound 312, cis- or trans-4-{4-[2-(3,5-Bis-trifluoromethyl-benzyloxy)-1-phenyl-ethyl]-piperazin-1-yl}-cyclohexanecarboxylic acid]
% inhibition of [3H]D888 binding to the verapamil binding site of the L-type calcium channel [1]: 0 (0: inhibition < 20%) | Result: effect of compound on isolated rat aorta contracted by 100 mM KCl [2]: inactive à 10^−5 M | IC50 (NK1 receptors): 0.0251 µM

O=C(O)COCCN1CCN(C(COCc2cc(C(F)(F)F)cc(C(F)(F)F)c2)c2ccccc2)CC1 (racemic) [Compound 235, (2-{4-[2-(3,5-Bis-trifluoromethyl-benzyloxy)-1-phenyl-ethyl]-piperazin-1-yl}-ethoxy)-acetic acid]
% inhibition of [3H]D888 binding to the verapamil binding site of the L-type calcium channel [1]: 0 (0: inhibition < 20%) | Result: effect of compound on isolated rat aorta contracted by 100 mM KCl [2]: inactive à 10^−5 M | IC50 (NK1 receptors): 0.0631 µM

CC(C)COC(=O)COCCN1CCN(C(COCc2cc(C(F)(F)F)cc(C(F)(F)F)c2)c2ccccc2)CC1 (stereo not drawn) [Compound 287, (2-{4-[2-(3,5-Bis-trifluoromethyl-benzyloxy)-1-phenyl-ethyl]-piperazin-1-yl}-ethoxy)-acetic acid isobutyl ester]
% inhibition of [3H]D888 binding to the verapamil binding site of the L-type calcium channel [1]: + (+: inhibition comprised between 20 and 50%) | Result: effect of compound on isolated rat aorta contracted by 100 mM KCl [2]: inactive à 10^−5 M | IC50 (NK1 receptors): 0.0316 µM

Fc1ccc(C(COCc2cc(C(F)(F)F)cc(C(F)(F)F)c2)N2CCN(CCCCc3nnn[nH]3)CC2)cc1 (stereo not drawn) [Compound 301]
% inhibition of [3H]D888 binding to the verapamil binding site of the L-type calcium channel [1]: + (+: inhibition comprised between 20 and 50%) | Result: effect of compound on isolated rat aorta contracted by 100 mM KCl [2]: inactive à 10^−5 M | IC50 (NK1 receptors): 0.0158 µM

O=c1[nH]nc(CN2CCN(C(COCc3cc(C(F)(F)F)cc(C(F)(F)F)c3)c3ccccc3)CC2)[nH]1 (stereo not drawn) [Compound 295, 5-{4-[2-(3,5-Bis-trifluoromethyl-benzyloxy)-1-phenyl-ethyl]-piperazin-1-ylmethyl}-2,4-dihydro-[1,2,4]triazol-3-one]
% inhibition of [3H]D888 binding to the verapamil binding site of the L-type calcium channel [1]: − + (+: inhibition comprised between 20 and 50%) | Result: effect of compound on isolated rat aorta contracted by 100 mM KCl [2]: inactive à 10^−5 M | IC50 (NK1 receptors): 0.0631 µM

FC(F)(F)c1cc(COCC(c2ccccc2)N2CCN(CCOCc3nnn[nH]3)CC2)cc(C(F)(F)F)c1 (stereo not drawn) [Compound 300]
% inhibition of [3H]D888 binding to the verapamil binding site of the L-type calcium channel [1]: + (+: inhibition comprised between 20 and 50%) | Result: effect of compound on isolated rat aorta contracted by 100 mM KCl [2]: inactive à 10^−5 M | IC50 (NK1 receptors): 0.0316 µM

O=C(O)CCCCN1CCN(C(COCc2cc(C(F)(F)F)cc(C(F)(F)F)c2)c2ccccc2)CC1 (racemic) [Compound 233, 5-{4-[2-(3,5-Bis-trifluoromethyl-benzyloxy)-1-phenyl-ethyl]-piperazin-1-yl}-pentanoic acid]
% inhibition of [3H]D888 binding to the verapamil binding site of the L-type calcium channel [1]: 0 (0: inhibition < 20%) | Result: effect of compound on isolated rat aorta contracted by 100 mM KCl [2]: inactive à 10^−5 M | IC50 (NK1 receptors): 0.0316 µM

FC(F)(F)c1cc(COCC(c2ccccc2)N2CCN(CCCCc3nnn[nH]3)CC2)cc(C(F)(F)F)c1 (stereo not drawn) [Compound 297]
% inhibition of [3H]D888 binding to the verapamil binding site of the L-type calcium channel [1]: + (+: inhibition comprised between 20 and 50%) | Result: effect of compound on isolated rat aorta contracted by 100 mM KCl [2]: inactive à 10^−5 M | IC50 (NK1 receptors): 0.02 µM

FC(F)(F)c1cc(COC[C@@H](c2ccccc2)N2CCN(CCCCc3nnn[nH]3)CC2)cc(C(F)(F)F)c1 [Compound 299]
% inhibition of [3H]D888 binding to the verapamil binding site of the L-type calcium channel [1]: + (+: inhibition comprised between 20 and 50%) | Result: effect of compound on isolated rat aorta contracted by 100 mM KCl [2]: inactive à 10^−5 M | IC50 (NK1 receptors): 0.0158 µM

O=C(O)CN1CCN([C@H](COCc2cc(C(F)(F)F)cc(C(F)(F)F)c2)c2ccccc2)CC1 [Compound 230]
% inhibition of [3H]D888 binding to the verapamil binding site of the L-type calcium channel [1]: 0 (0: inhibition < 20%) | Result: effect of compound on isolated rat aorta contracted by 100 mM KCl [2]: inactive à 10^−5 M | IC50 (NK1 receptors): 0.0501 µM

O=C(O)CN1CCN(C(COCc2cc(C(F)(F)F)cc(C(F)(F)F)c2)c2ccccc2)CC1 (racemic) [Compound 229, {4-[2-(3,5-Bis-trifluoromethyl-benzyloxy)-1-phenyl-ethyl]-piperazin-1-yl}-acetic acid]
% inhibition of [3H]D888 binding to the verapamil binding site of the L-type calcium channel [1]: 0 (0: inhibition < 20%) | Result: effect of compound on isolated rat aorta contracted by 100 mM KCl [2]: inactive à 10^−5 M | IC50 (NK1 receptors): 0.0794 µM

O=C(O)COCCN1CCN([C@H](COCc2cc(C(F)(F)F)cc(C(F)(F)F)c2)c2ccccc2)CC1 [Compound 236]
% inhibition of [3H]D888 binding to the verapamil binding site of the L-type calcium channel [1]: 0 (0: inhibition < 20%) | Result: effect of compound on isolated rat aorta contracted by 100 mM KCl [2]: inactive à 10^−5 M | IC50 (NK1 receptors): 0.0794 µM
